Test system: anti-AQP5 autoantibodies
Assay: Indirect immunofluorescence (IIF) assay: AQP5 staining by human serum/IgG pre-incubated with peptide
Assay type: binding
Conditions: for inhibition of anti-AQP5 autoantibodies from the control group: by comparison of the mean signal intensities (Fig. 2B); for frequency of recognition by SS vs control samples: seven peptides originating from the AQP5 sequence
Text: This study was done in compliance with the Helsinki Declaration after approvals from the Institutional Review Board of Seoul National University Hospital (IRB number: 0912-011-302) and the Institutional Review Board of Seoul St. Mary's Hospital (IRB number: KC13ONMI0646). From our previous study (12), 13 control and 24 SS serum samples positive for anti-AQP5 IgG were chosen based on the levels of anti-AQP5 IgG and availability. The first 12 control and 12 SS samples had similar low levels of anti-AQP5 IgG, while the rest of the samples had intermediate to high levels. IgG antibodies were purified using a protein A column (ThermoFisher Scientific, Waltham, MA, USA) from the sera of 3 SS patients who were not included in the previous study. A commercial human IgG product purified from pooled normal sera (Sigma-Aldrich Korea, Seoul, Korea) was used as control. All SS patients fulfilled the 2002 American-European Consensus group classification criteria and/or the 2012 American College of Rheumatology criteria. Madin-Darby canine kidney (MDCK) cells expressing full-length human AQP5 (MDCK-AQP5) were maintained in DMEM medium with 10% FBS and 1% penicillin/streptomycin in the presence of G418 (12). A mixture of non-transfected MDCK and MDCK-AQP5 cells (6 × 10^4) was plated onto collagen-coated coverslips of 12 mm diameter. After stimulation with 0.5 mM cAMP for 24 hours, the cells were fixed with 4% paraformaldehyde in PBS (pH 7.4) and subjected to antigen retrieval by incubation in sodium citrate buffer (10 mM sodium citrate, 0.05% Tween-20, pH 6) at 105 °C for 20 min. After blocking with 5% BSA in PBS, the cells were incubated with goat polyclonal antibodies raised against a peptide near the C-terminus of human AQP5 (Santa Cruz, Paso Robles, CA, USA) along with control/SS sera (1:200 dilution) or purified IgG (10 µg) that were pre-incubated overnight with 10 µg synthetic peptides in RIA buffer (10 mM Tris-HCl, 350 mM NaCl, 1% BSA, 1% Triton X-100, 0.5 % Sodium deoxycholate, 0.1% SDS, 10% Horse serum, pH 7.6). Subsequently, the cells were stained with Alexa Fluor 488-conjugated donkey anti-goat IgG (Invitrogen, Carlsbad, CA, USA) and CF™ 594-conjugated rabbit anti-human IgG (Sigma-Aldrich). At least four images of AQP5-expressing cells were randomly selected, based on the goat anti-AQP5 antibody stain, and imaged sequentially for the staining with human IgG using a confocal microscope (Carl Zeiss, Jena, Germany). After coding the images, two individuals blindly determined the relative intensities of the anti-AQP5 human IgG signals by decreasing the brightness of the red signal until all the signals of AQP5 stain disappeared. […] The mean of the Δ brightness was used to express the anti-AQP5 IgG level in each sample. The differences in proportion between two groups were determined by Fisher's exact test. Differences in means between the experimental and control groups were determined by Student's t-test, while the differences among peptides were determined by Oneway ANOVA. All statistical analyses were performed using SPSS (SPSS Inc., Chicago, USA). To analyze the epitopes recognized by anti-AQP5 autoantibodies, MDCK-AQP5 cells were double stained with goat anti-AQP5 antibodies and serum from either control subjects or SS patients that were pre-incubated with each peptide (Fig. 2A). The intensity of AQP5 staining by human IgG in the presence of each peptide was expressed as the percentage of control conditions in the absence of peptides (Table 2). Because the normalized intensities of AQP5 staining in the presence of IRP varied from 69 to 173 depending on the sample, signal intensities smaller than 62.2, which is the mean - 2SD of values in the presence of IRP, were regarded as being inhibited by the corresponding peptide.

Sequence	inhibition of anti-AQP5 autoantibodies from the control group	frequency of recognition by SS vs control samples	control samples inhibited by / recognizing the peptide (14 control samples (13 sera, 1 control-IgG), inhibited = signal intensity smaller than 62.2)	SS samples inhibited by / recognizing the peptide (27 SS samples (24 sera, 3 purified IgG), inhibited = signal intensity smaller than 62.2)
CMNPARSFGC (Epitope of AQP5 Extracellular loop E with Cystein added at N- and C- term) [E2, Extracellular loop E aa 184-191 with added terminal cysteines]	significantly inhibited	more frequently recognized by SS than by control samples	–	–
GCSMNPARSFGC (Epitope of AQP5 Extracellular loop E with Cystein added at C- term) [peptide E1, Extracellular loop E aa 181-191 with C-terminal cysteine added]	significantly inhibited	most frequently recognized	2 of 14	20 of 27

— EP3611183B1, “EPITOPE PEPTIDE SPECIFICALLY RECOGNIZING AUTOANTIBODY AGAINST AQUAPORIN 5, AND USE THEREOF” (Seoul National University R & DB Foundation, priority 2017, dated 2023)
